pIC50: −log10 of the molar value.
Each compound was assayed against T1, Chk1 (Homo sapiens, UniProt O14757) (assay: Chk1 kinase assay: incorporation of γ-33P ATP into immobilized myelin basic protein). Conditions: Table 11, Chk1 only; class symbols A-D; read-out: Chk1 IC50.
T1 construct: purchased Upstate Biotechnology
T1 sequence (O14757 1-476): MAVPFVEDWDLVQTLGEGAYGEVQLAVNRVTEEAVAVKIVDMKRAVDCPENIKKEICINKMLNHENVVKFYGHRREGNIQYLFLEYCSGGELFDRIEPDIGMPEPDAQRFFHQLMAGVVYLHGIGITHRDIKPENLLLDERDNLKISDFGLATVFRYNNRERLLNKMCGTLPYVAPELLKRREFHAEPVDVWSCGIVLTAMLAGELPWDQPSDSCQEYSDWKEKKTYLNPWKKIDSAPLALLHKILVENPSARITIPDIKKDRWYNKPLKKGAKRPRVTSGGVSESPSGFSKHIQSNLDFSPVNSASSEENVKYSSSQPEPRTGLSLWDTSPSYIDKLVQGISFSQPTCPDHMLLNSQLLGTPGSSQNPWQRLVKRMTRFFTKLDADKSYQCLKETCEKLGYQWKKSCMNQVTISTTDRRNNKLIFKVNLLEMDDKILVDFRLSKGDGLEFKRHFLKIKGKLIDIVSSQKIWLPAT
Assay type: biochemical
Summary of the method: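 Plates coated with MBP, then kinase reactions in Hepes pH 7.6 buffer with 10 mM MgCl2 and 1% DMSO were started by adding unlabeled plus γ-33P ATP (10 μM for Chk1 at 10 nM enzyme; 30 μM for Chk2 at 20 nM enzyme). After 1 h at room temperature, plates were washed and counted.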

pIC50 | SMILES
> 7.30 | CSc1ccccc1NC(=O)NCc1cccc(-c2cnc(N)c(C(=O)N[C@H]3CCCNC3)n2)c1 [Example 920, 3-amino-6-(3-{[({[2-(methylthio)phenyl]amino}carbonyl)amino]methyl}phenyl)-N-[(3S)-piperidin-3-yl]pyrazine-2-carboxamide]
> 7.30 | Nc1ncc(-c2cccc(C(=O)NCc3ccccc3)c2)nc1C(=O)N[C@H]1CCCNC1 [Example 1040, 3-amino-6-{3-[({[phenyl]methyl}amino)carbonyl]phenyl}-N-[(3S)-piperidin-3-yl]pyrazine-2-carboxamide]

Further lines, the compound ahead of its results:

SMILES | pIC50
Nc1ncc(-c2cccc(CNC(=O)c3ccc(I)cc3)c2)nc1-c1nc([C@H]2CCCNC2)n[nH]1 [Example 942, N-{[3-(5-amino-6-{3-[(3S)-piperidin-3-yl]-1H-1,2,4-triazol-5-yl}pyrazin-2-yl)phenyl]methyl}-4-iodobenzamide] | > 7.30
Nc1ncc(-c2cccc(C(=O)NCc3ccc(F)c(Br)c3)c2)nc1C(=O)N[C@H]1CCNC1 [Example 817, 3-amino-6-[3-({[(3-bromo-4-fluorophenyl)methyl]amino}carbonyl)phenyl]-N-[(3S)-pyrrolidin-3-yl]pyrazine-2-carboxamide] | > 7.30
Nc1ncc(-c2cccc(CNC(=O)Nc3ccc(Cl)cc3)c2)nc1C(=O)N[C@H]1CCCNC1 [Example 971, 3-amino-6-{3-[({[(4-chlorophenyl)amino]carbonyl}amino)methyl]phenyl}-N-[(3S)-piperidin-3-yl]pyrazine-2-carboxamide] | > 7.30
Nc1ncc(-c2cccc(C(=O)NCc3ccc(F)cc3)c2)nc1-c1nnc([C@H]2CCCNC2)[nH]1 [Example 836, 3-(5-amino-6-{5-[(3S)-piperidin-3-yl]-4H-1,2,4-triazol-3-yl}pyrazin-2-yl)-N-[(4-fluorophenyl)methyl]benzamide] | > 7.30

Same assay, conditions: Table 11; Chk1 only; read-out: Chk1 IC50

pIC50 | SMILES
6.00 to 7.30 | Nc1ncc(-c2cccc(C(=O)NCCc3ccccc3)c2)nc1C(=O)N[C@H]1CCNC1 [Example 715, 3-amino-6-(3-{[(2-phenylethyl)amino]carbonyl}phenyl)-N-[(3S)-pyrrolidin-3-yl]pyrazine-2-carboxamide]
≤ 5.00 | CC(C)(C)OC(=O)N1CC[C@@H](CNC(=O)c2nc(-c3cccc(C(=O)N[C@H]4CCc5ccccc54)c3)cnc2N)C1 [Example 752, 1,1-dimethylethyl (3S)-3-[({[3-amino-6-(3-{[(1S)-2,3-dihydro-1H-inden-1-ylamino]carbonyl}phenyl)pyrazin-2-yl]carbonyl}amino)methyl]pyrrolidine-1-carboxylate]
≤ 5.00 | C/C(=N\Nc1ccc(C#N)cc1)c1nc(-c2cccc(C(=O)NCc3ccccc3)c2)cnc1N [Example 631, 3-{5-amino-6-[(1E)-N-(4-cyanophenyl)ethanehydrazonoyl]pyrazin-2-yl}-N-(phenylmethyl)benzamide]
6.00 to 7.30 | Nc1ncc(-c2cccc(CO)c2)nc1-c1nc([C@H]2CCCNC2)n[nH]1 [Example 725, [3-(5-amino-6-{3[(3S)-piperidin-3-yl]-1H-1,2,4-triazol-5-yl}pyrazin-2-yl)phenyl]methanol]
> 7.30 | Nc1ncc(-c2cccc(C(=O)N[C@H]3CCc4ccccc43)c2)nc1-c1nnc([C@H]2CCCNC2)[nH]1 [Example 755, 3-(5-amino-6-{5-[(3S)-piperidin-3-yl]-4H-1,2,4-triazol-3-yl}pyrazin-2-yl)-N-[(1S)-2,3-dihydro-1H-inden-1-yl]benzamide]
≤ 5.00 | Nc1ncc(-c2cccc(C(=O)NCc3ccccc3)c2)nc1C(=O)NCCCNC(=O)c1ccc(C(F)(F)F)nc1 [Example 652, 3-amino-6-(3-{[(phenylmethyl)amino]carbonyl}phenyl)-N-[3-({[6-(trifluoromethyl)pyridin-3-yl]carbonyl}amino)propyl]pyrazine-2-carboxamide]
6.00 to 7.30 | CNC(=O)c1nc(-c2cccc(CNCc3cc(Br)ccc3F)c2)cnc1N [Example 444, 3-amino-6-[3-({[(5-bromo-2-fluorophenyl)methyl]amino}methyl)phenyl]-N-methylpyrazine-2-carboxamide]
≤ 5.00 | Nc1ncc(-c2cccc(C(=O)NCc3ccccc3)c2)nc1/C=N/NCc1ccccc1 [Example 675, 3-(5-amino-6-{(E)-[(phenylmethyl)hydrazono]methyl}pyrazin-2-yl)-N-(phenylmethyl)benzamide]
5.00 to 6.00 | C/C(=N\Nc1nccc(C(F)(F)F)n1)c1nc(-c2cccc(C(=O)NCc3ccccc3)c2)cnc1N [Example 636, 3-(5-amino-6-{(1E)-N-[4-(trifluoromethyl)pyrimidin-2-yl]ethanehydrazonoyl}pyrazin-2-yl)-N-(phenylmethyl)benzamide]

Same assay, conditions: read-out: Chk1 IC50

pIC50 | SMILES
6.00 to 7.30 | CNC(=O)c1nc(-c2cccc(CNCc3ccc4c(c3)NCCO4)c2)cnc1N [Example 386, 3-amino-6-(3-{[(3,4-dihydro-2H-1,4-benzoxazin-6-ylmethyl)amino]methyl}phenyl)-N-methylpyrazine-2-carboxamide]
6.00 to 7.30 | CNC(=O)c1nc(-c2cccc(CNCc3ccccc3N3CCCCC3)c2)cnc1N [Example 404, 3-amino-N-methyl-6-[3-({[(2-piperidin-1-ylphenyl)methyl]amino}methyl)phenyl]pyrazine-2-carboxamide]
> 7.30 | CNC(=O)c1nc(-c2cccc(CNC(=O)c3ccc(-c4ccccc4)cc3)c2)cnc1N [Example 332, 3-amino-6-(3-{[(biphenyl-4-ylcarbonyl)amino]methyl}phenyl)-N-methylpyrazine-2-carboxamide]
6.00 to 7.30 | CNC(=O)c1nc(-c2cccc(CS(=O)(=O)Cc3ccccc3)c2)cnc1N [Example 313, 3-amino-N-methyl-6-(3-{[(phenylmethyl)sulfonyl]methyl}phenyl)pyrazine-2-carboxamide]
6.00 to 7.30 | CNC(=O)c1nc(-c2cccc(C(=O)NCc3ccccc3N)c2)cnc1N [Example 231, 3-amino-6-[3-({[(2-aminophenyl)methyl]amino}carbonyl)phenyl]-N-methylpyrazine-2-carboxamide]

The remaining lines, values behind:

SMILES | pIC50
CNC(=O)c1nc(-c2cccc(C(=O)NCc3ccc(F)cc3)c2)cnc1N [Example 103, 3-amino-6-[3-({[(4-fluorophenyl)methyl]amino}carbonyl)phenyl]-N-methylpyrazine-2-carboxamide] | 6.00 to 7.30
CNC(=O)c1nc(-c2cccc(CNC(=O)C3CCN(c4ncc(C(F)(F)F)cn4)CC3)c2)cnc1N [Example 354, 3-amino-N-methyl-6-(3-{[({1-[5-(trifluoromethyl)pyrimidin-2-yl]piperidin-4-yl}carbonyl)amino]methyl}phenyl)pyrazine-2-carboxamide] | 6.00 to 7.30
CNC(=O)c1nc(-c2cccc(C(=O)NCc3ccc(C)cc3)c2)cnc1N [Example 101, 3-amino-N-methyl-6-[3-({[(4-methylphenyl)methyl]amino}carbonyl)phenyl]pyrazine-2-carboxamide] | 6.00 to 7.30
CNC(=O)c1nc(-c2cccc(C(=O)NCC(C)C)c2)cnc1N [Example 217, 3-amino-N-methyl-6-(3-{[(2-methylpropyl)amino]carbonyl}phenyl)pyrazine-2-carboxamide] | 5.00 to 6.00
CNC(=O)c1nc(-c2cccc(C(=O)NCc3ccc(OC(F)(F)F)cc3)c2)cnc1N [Example 227, 3-amino-N-methyl-6-(3-{[({4-[(trifluoromethyl)oxy]phenyl}methyl)amino]carbonyl}phenyl)pyrazine-2-carboxamide] | 6.00 to 7.30

— patent publication US7704995B2 (Exelixis, Inc., priority 2003, dated 2010)
